This note sets out measurements from article PMC6775102, “Lifespan-increasing drug nordihydroguaiaretic acid inhibits p300 and activates autophagy” (NPJ Aging and Mechanisms of Disease, 2019).

This test concerns the target T1, p300 (Homo sapiens, UniProt Q09472).
T1 construct: gene EP300; p300 BHC (bromodomain, catalytic acetyltransferase domain, and C/H3 domain, amino acids 965–1810); also p300 HAT (amino acids 1284–1673)
T1 sequence (Q09472 965-1810): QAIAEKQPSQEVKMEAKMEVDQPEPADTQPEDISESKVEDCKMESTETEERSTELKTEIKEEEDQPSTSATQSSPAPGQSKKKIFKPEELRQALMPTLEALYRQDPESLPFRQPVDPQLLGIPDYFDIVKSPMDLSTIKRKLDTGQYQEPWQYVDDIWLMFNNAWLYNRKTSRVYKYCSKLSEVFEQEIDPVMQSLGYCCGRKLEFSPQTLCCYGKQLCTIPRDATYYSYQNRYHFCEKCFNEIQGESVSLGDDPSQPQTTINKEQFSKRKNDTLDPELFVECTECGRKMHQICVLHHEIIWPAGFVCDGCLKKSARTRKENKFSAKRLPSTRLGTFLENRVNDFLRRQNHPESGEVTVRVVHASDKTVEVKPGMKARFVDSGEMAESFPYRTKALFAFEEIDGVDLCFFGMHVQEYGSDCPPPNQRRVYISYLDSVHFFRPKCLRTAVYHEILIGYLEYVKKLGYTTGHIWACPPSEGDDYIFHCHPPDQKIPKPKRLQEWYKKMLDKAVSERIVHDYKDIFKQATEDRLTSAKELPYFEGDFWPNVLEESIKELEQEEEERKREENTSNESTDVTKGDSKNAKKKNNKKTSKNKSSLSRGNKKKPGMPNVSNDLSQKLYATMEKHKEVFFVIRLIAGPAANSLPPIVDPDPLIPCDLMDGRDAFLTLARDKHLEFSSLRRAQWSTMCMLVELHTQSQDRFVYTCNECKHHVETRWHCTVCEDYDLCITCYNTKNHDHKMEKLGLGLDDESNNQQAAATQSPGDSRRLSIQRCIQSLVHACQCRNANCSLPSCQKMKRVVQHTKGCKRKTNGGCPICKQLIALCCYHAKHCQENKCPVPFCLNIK
The test is described as follows: fluorimetric acetyltransferase assay with recombinant p300 BHC and H3 peptide; second assay with p300 HAT; supported by CETSA of p300 HAT in HEK293T cells (+[…] °C). It is filed as biochemical.

With `CC(Cc1ccc(O)c(O)c1)C(C)Cc1ccc(O)c(O)c1` (stereo not shown) [nordihydroguaiaretic acid], the half-maximal inhibitory concentration (IC50) worked out at 10.3 µM.
